Results from US5668133A, “Ophthalmic compositions comprising emedastine and methods for their use” (priority 1995, dated 1997).

Test system: passive anaphylaxis in guinea pig conjunctiva
Test: passive conjunctival anaphylaxis, topical ocular antigen challenge, clinical scoring
Format: in vivo
Method: Emedastine difumarate was evaluated for its ability to inhibit a passive conjunctival immediate hypersensitivity response following topical ocular administration.
Guinea pigs (5-8/group) were passively sensitized with anti-ovalbumin serum injected subconjunctivally in one eye. Twenty-four hours after passive sensitization, ovalbumin (OA) was administered either i.v. or topically to the eye.
For assessment of the allergic response following topical ocular antigen challenge, 20 μL of ovalbumin (1.0 wt %) was administered to the sensitized eye 5 minutes after topical ocular application of emedastine difumarate or saline (20 μL). Thirty minutes later, the reaction was quantitated, using the following scoring scheme (maximum score per animal=10):
Congestion (refers to palpebral and bulbar conjunctiva):
3--Dark red conjunctiva; petechiae present
1--Any swelling on lower lid only
2--Swelling upper and lower lid, lids partially closed
3--Lids everted, very swollen, lids at least half closed
4--Swelling of both lids and side of face
1--Glazed, glassy appearance
2--Moist lids and surrounding hair
3--Moist lids and surrounding hair, thicker mucous-like

[1] = topical ocular antigen challenge, 5 min before challenge

Question: For `CCOCCn1c(N2CCCN(C)CC2)nc2ccccc21` [Emedastine Difumarate, 1-(2-ethoxyethyl)-2-(4-methyl-1-homopiperazinyl)-benzimidazole], which “reduction in severity of the hypersensitivity response” value (5 minutes before topical ocular antigen challenge) is on record?
Answer: concentration-dependent reductions in the severity of the hypersensitivity response

Question: What about the “attenuation of the hypersensitivity response” value (concentrations ranging from 0.0001% to 0.1%) of the same molecule?
Answer: Significant attenuation

Question: What about the “% Change” value (topical ocular antigen challenge, 0.0001 wt %, 5 min before challenge) of the same molecule?
Answer: -29%

Question: And the “% Change” value (topical ocular antigen challenge, 0.001 wt %, 5 min before challenge)?
Answer: -45%

Question: What about the “% Change” value (topical ocular antigen challenge, 0.01 wt %, 5 min before challenge) of the same molecule?
Answer: -51%

Question: And the “% Change” value (topical ocular antigen challenge, 0.1 wt %, 5 min before challenge)?
Answer: -67%

Question: What about the ED50 [1] of the same molecule?
Answer: 0.0046 wt %

Question: What about the “ED50 (text)” value [1] of the same molecule?
Answer: 0.0046%
